# Laboratory results reported in ChEMBL document CHEMBL3044736, “Synthesis, characterization, solvatochromic properties, and antimicrobial evaluation of 5-acetyl-2-thioxo-dihydro-pyrimidine-4,6-dione-based chalcones” (2013).
# What was measured:
# Assay type in all cases: functional
# Escherichia coli [1] = test: Antimicrobial activity against Escherichia coli MTCC 443 by agar cup diffusion method
# Staphylococcus aureus [2] = test: Antimicrobial activity against Staphylococcus aureus MTCC 96 assessed as diameter of growth inhibition zone at 100 ug/ml after 18-24 hr by agar cup diffusion method; conditions: read-out: DIZ
# Escherichia coli [3] = test: Antimicrobial activity against Escherichia coli MTCC 443 assessed as diameter of growth inhibition zone at 250 ug/ml after 18-24 hr by agar cup diffusion method; conditions: read-out: DIZ
# Candida albicans [4] = test: Antimicrobial activity against Candida albicans MTCC 227 assessed as diameter of growth inhibition zone at 50 ug/ml after 48-96 hr by agar cup diffusion method; conditions: read-out: DIZ
# Trichophyton rubrum [5] = test: Antimicrobial activity against Trichophyton rubrum MTCC 296 assessed as diameter of growth inhibition zone at 250 ug/ml after 48-96 hr by agar cup diffusion method; conditions: read-out: DIZ
# Escherichia coli [6] = test: Antimicrobial activity against Escherichia coli MTCC 443 assessed as diameter of growth inhibition zone at 50 ug/ml after 18-24 hr by agar cup diffusion method; conditions: read-out: DIZ
# Candida albicans [7] = test: Antimicrobial activity against Candida albicans MTCC 227 by agar cup diffusion method
# Streptococcus pyogenes [8] = test: Antimicrobial activity against Streptococcus pyogenes MTCC 442 assessed as diameter of growth inhibition zone at 50 ug/ml after 18-24 hr by agar cup diffusion method; conditions: read-out: DIZ
# Klebsiella pneumoniae [9] = test: Antimicrobial activity against Klebsiella pneumoniae MTCC 109 assessed as diameter of growth inhibition zone at 25 ug/ml after 18-24 hr by agar cup diffusion method; conditions: read-out: DIZ
# Klebsiella pneumoniae [10] = test: Antimicrobial activity against Klebsiella pneumoniae MTCC 109 assessed as diameter of growth inhibition zone at 100 ug/ml after 18-24 hr by agar cup diffusion method; conditions: read-out: DIZ
# Aspergillus clavatus [11] = test: Antimicrobial activity against Aspergillus clavatus MTCC 1323 by agar cup diffusion method
# Trichophyton rubrum [12] = test: Antimicrobial activity against Trichophyton rubrum MTCC 296 assessed as diameter of growth inhibition zone at 25 ug/ml after 48-96 hr by agar cup diffusion method; conditions: read-out: DIZ
# Klebsiella pneumoniae [13] = test: Antimicrobial activity against Klebsiella pneumoniae MTCC 109 assessed as diameter of growth inhibition zone at 50 ug/ml after 18-24 hr by agar cup diffusion method; conditions: read-out: DIZ
# Pseudomonas aeruginosa [14] = test: Antimicrobial activity against Pseudomonas aeruginosa MTCC 1688 assessed as diameter of growth inhibition zone at 250 ug/ml after 18-24 hr by agar cup diffusion method; conditions: read-out: DIZ
# Penicillium [15] = test: Antimicrobial activity against Penicillium wild strain assessed as diameter of growth inhibition zone at 50 ug/ml after 48-96 hr by agar cup diffusion method; conditions: read-out: DIZ
# Staphylococcus aureus [16] = test: Antimicrobial activity against Staphylococcus aureus MTCC 96 assessed as diameter of growth inhibition zone at 25 ug/ml after 18-24 hr by agar cup diffusion method; conditions: read-out: DIZ
# Candida albicans [17] = test: Antimicrobial activity against Candida albicans MTCC 227 assessed as diameter of growth inhibition zone at 250 ug/ml after 48-96 hr by agar cup diffusion method; conditions: read-out: DIZ
# Aspergillus clavatus [18] = test: Antimicrobial activity against Aspergillus clavatus MTCC 1323 assessed as diameter of growth inhibition zone at 25 ug/ml after 48-96 hr by agar cup diffusion method; conditions: read-out: DIZ
# Penicillium [19] = test: Antimicrobial activity against Penicillium wild strain assessed as diameter of growth inhibition zone at 100 ug/ml after 48-96 hr by agar cup diffusion method; conditions: read-out: DIZ
# Streptococcus pyogenes [20] = test: Antimicrobial activity against Streptococcus pyogenes MTCC 442 assessed as diameter of growth inhibition zone at 100 ug/ml after 18-24 hr by agar cup diffusion method; conditions: read-out: DIZ
# Klebsiella pneumoniae [21] = test: Antimicrobial activity against Klebsiella pneumoniae MTCC 109 by agar cup diffusion method
# Streptococcus pyogenes [22] = test: Antimicrobial activity against Streptococcus pyogenes MTCC 442 assessed as diameter of growth inhibition zone at 25 ug/ml after 18-24 hr by agar cup diffusion method; conditions: read-out: DIZ
# Escherichia coli [23] = test: Antimicrobial activity against Escherichia coli MTCC 443 assessed as diameter of growth inhibition zone at 100 ug/ml after 18-24 hr by agar cup diffusion method; conditions: read-out: DIZ
# Streptococcus pyogenes [24] = test: Antimicrobial activity against Streptococcus pyogenes MTCC 442 by agar cup diffusion method
# Streptococcus pyogenes [25] = test: Antimicrobial activity against Streptococcus pyogenes MTCC 442 assessed as diameter of growth inhibition zone at 250 ug/ml after 18-24 hr by agar cup diffusion method; conditions: read-out: DIZ
# Staphylococcus aureus [26] = test: Antimicrobial activity against Staphylococcus aureus MTCC 96 assessed as diameter of growth inhibition zone at 50 ug/ml after 18-24 hr by agar cup diffusion method; conditions: read-out: DIZ
# Staphylococcus aureus [27] = test: Antimicrobial activity against Staphylococcus aureus MTCC 96 assessed as diameter of growth inhibition zone at 250 ug/ml after 18-24 hr by agar cup diffusion method; conditions: read-out: DIZ
# Pseudomonas aeruginosa [28] = test: Antimicrobial activity against Pseudomonas aeruginosa MTCC 1688 assessed as diameter of growth inhibition zone at 50 ug/ml after 18-24 hr by agar cup diffusion method; conditions: read-out: DIZ
# Trichophyton rubrum [29] = test: Antimicrobial activity against Trichophyton rubrum MTCC 296 assessed as diameter of growth inhibition zone at 50 ug/ml after 48-96 hr by agar cup diffusion method; conditions: read-out: DIZ
# Klebsiella pneumoniae [30] = test: Antimicrobial activity against Klebsiella pneumoniae MTCC 109 assessed as diameter of growth inhibition zone at 250 ug/ml after 18-24 hr by agar cup diffusion method; conditions: read-out: DIZ
# Pseudomonas aeruginosa [31] = test: Antimicrobial activity against Pseudomonas aeruginosa MTCC 1688 assessed as diameter of growth inhibition zone at 100 ug/ml after 18-24 hr by agar cup diffusion method; conditions: read-out: DIZ
# Pseudomonas aeruginosa [32] = test: Antimicrobial activity against Pseudomonas aeruginosa MTCC 1688 by agar cup diffusion method
# Candida albicans [33] = test: Antimicrobial activity against Candida albicans MTCC 227 assessed as diameter of growth inhibition zone at 100 ug/ml after 48-96 hr by agar cup diffusion method; conditions: read-out: DIZ
# Aspergillus clavatus [34] = test: Antimicrobial activity against Aspergillus clavatus MTCC 1323 assessed as diameter of growth inhibition zone at 250 ug/ml after 48-96 hr by agar cup diffusion method; conditions: read-out: DIZ
# Penicillium [35] = test: Antimicrobial activity against Penicillium wild strain by agar cup diffusion method
# Aspergillus clavatus [36] = test: Antimicrobial activity against Aspergillus clavatus MTCC 1323 assessed as diameter of growth inhibition zone at 50 ug/ml after 48-96 hr by agar cup diffusion method; conditions: read-out: DIZ
# Penicillium [37] = test: Antimicrobial activity against Penicillium wild strain assessed as diameter of growth inhibition zone at 250 ug/ml after 48-96 hr by agar cup diffusion method; conditions: read-out: DIZ
# Penicillium [38] = test: Antimicrobial activity against Penicillium wild strain assessed as diameter of growth inhibition zone at 25 ug/ml after 48-96 hr by agar cup diffusion method; conditions: read-out: DIZ
# Candida albicans [39] = test: Antimicrobial activity against Candida albicans MTCC 227 assessed as diameter of growth inhibition zone at 25 ug/ml after 48-96 hr by agar cup diffusion method; conditions: read-out: DIZ
# Escherichia coli [40] = test: Antimicrobial activity against Escherichia coli MTCC 443 assessed as diameter of growth inhibition zone at 25 ug/ml after 18-24 hr by agar cup diffusion method; conditions: read-out: DIZ
# Aspergillus clavatus [41] = test: Antimicrobial activity against Aspergillus clavatus MTCC 1323 assessed as diameter of growth inhibition zone at 100 ug/ml after 48-96 hr by agar cup diffusion method; conditions: read-out: DIZ
# Trichophyton rubrum [42] = test: Antimicrobial activity against Trichophyton rubrum MTCC 296 by agar cup diffusion method
# Trichophyton rubrum [43] = test: Antimicrobial activity against Trichophyton rubrum MTCC 296 assessed as diameter of growth inhibition zone at 100 ug/ml after 48-96 hr by agar cup diffusion method; conditions: read-out: DIZ
# Pseudomonas aeruginosa [44] = test: Antimicrobial activity against Pseudomonas aeruginosa MTCC 1688 assessed as diameter of growth inhibition zone at 25 ug/ml after 18-24 hr by agar cup diffusion method; conditions: read-out: DIZ
# Staphylococcus aureus [45] = test: Antimicrobial activity against Staphylococcus aureus MTCC 96 by agar cup diffusion method
smiles,measurement,setting,value
O=C(/C=C/c1ccc(O)cc1)C1C(=O)NC(=S)NC1=O,MBC,Escherichia coli [1],250 µg/mL
same,MIC,Escherichia coli [1],250 µg/mL
same,zone of inhibition at 100 µg/mL,Staphylococcus aureus [2],16 mm
same,zone of inhibition at 250 µg/mL,Escherichia coli [3],17 mm
same,zone of inhibition at 50 µg/mL,Candida albicans [4],20 mm
same,zone of inhibition at 250 µg/mL,Trichophyton rubrum [5],24 mm
same,zone of inhibition at 50 µg/mL,Escherichia coli [6],17 mm
same,MFC,Candida albicans [7],500 µg/mL
same,MIC,Candida albicans [7],> 1000 µg/mL
same,zone of inhibition at 50 µg/mL,Streptococcus pyogenes [8],17 mm
same,zone of inhibition at 25 µg/mL,Klebsiella pneumoniae [9],10 mm
same,zone of inhibition at 100 µg/mL,Klebsiella pneumoniae [10],16 mm
same,MFC,Aspergillus clavatus [11],500 µg/mL
same,MIC,Aspergillus clavatus [11],500 µg/mL
same,zone of inhibition at 25 µg/mL,Trichophyton rubrum [12],22 mm
same,zone of inhibition at 50 µg/mL,Klebsiella pneumoniae [13],11 mm
same,zone of inhibition at 250 µg/mL,Pseudomonas aeruginosa [14],18 mm
same,zone of inhibition at 50 µg/mL,Penicillium [15],19 mm
same,zone of inhibition at 25 µg/mL,Staphylococcus aureus [16],10 mm
same,zone of inhibition at 250 µg/mL,Candida albicans [17],23 mm
same,zone of inhibition at 25 µg/mL,Aspergillus clavatus [18],21 mm
same,zone of inhibition at 100 µg/mL,Penicillium [19],22 mm
same,zone of inhibition at 100 µg/mL,Streptococcus pyogenes [20],16 mm
same,MBC,Klebsiella pneumoniae [21],200 µg/mL
same,MIC,Klebsiella pneumoniae [21],125 µg/mL
same,zone of inhibition at 25 µg/mL,Streptococcus pyogenes [22],15 mm
same,zone of inhibition at 100 µg/mL,Escherichia coli [23],16 mm
same,MBC,Streptococcus pyogenes [24],250 µg/mL
same,MIC,Streptococcus pyogenes [24],100 µg/mL
same,zone of inhibition at 250 µg/mL,Streptococcus pyogenes [25],17 mm
same,zone of inhibition at 50 µg/mL,Staphylococcus aureus [26],14 mm
same,zone of inhibition at 250 µg/mL,Staphylococcus aureus [27],18 mm
same,zone of inhibition at 50 µg/mL,Pseudomonas aeruginosa [28],14 mm
same,zone of inhibition at 50 µg/mL,Trichophyton rubrum [29],22 mm
same,zone of inhibition at 250 µg/mL,Klebsiella pneumoniae [30],18 mm
same,zone of inhibition at 100 µg/mL,Pseudomonas aeruginosa [31],16 mm
same,MBC,Pseudomonas aeruginosa [32],500 µg/mL
same,MIC,Pseudomonas aeruginosa [32],250 µg/mL
same,zone of inhibition at 100 µg/mL,Candida albicans [33],23 mm
same,zone of inhibition at 250 µg/mL,Aspergillus clavatus [34],24 mm
same,MFC,Penicillium [35],> 1000 µg/mL
same,MIC,Penicillium [35],> 1000 µg/mL
same,zone of inhibition at 50 µg/mL,Aspergillus clavatus [36],21 mm
same,zone of inhibition at 250 µg/mL,Penicillium [37],24 mm
same,zone of inhibition at 25 µg/mL,Penicillium [38],18 mm
same,zone of inhibition at 25 µg/mL,Candida albicans [39],16 mm
same,zone of inhibition at 25 µg/mL,Escherichia coli [40],15 mm
same,zone of inhibition at 100 µg/mL,Aspergillus clavatus [41],22 mm
same,MFC,Trichophyton rubrum [42],> 1000 µg/mL
same,MIC,Trichophyton rubrum [42],> 1000 µg/mL
same,zone of inhibition at 100 µg/mL,Trichophyton rubrum [43],24 mm
same,zone of inhibition at 25 µg/mL,Pseudomonas aeruginosa [44],10 mm
same,MBC,Staphylococcus aureus [45],500 µg/mL
same,MIC,Staphylococcus aureus [45],250 µg/mL
